# Target: T1, human CCR6 (Homo sapiens, UniProt P51684)
# T1 sequence (P51684 1-374): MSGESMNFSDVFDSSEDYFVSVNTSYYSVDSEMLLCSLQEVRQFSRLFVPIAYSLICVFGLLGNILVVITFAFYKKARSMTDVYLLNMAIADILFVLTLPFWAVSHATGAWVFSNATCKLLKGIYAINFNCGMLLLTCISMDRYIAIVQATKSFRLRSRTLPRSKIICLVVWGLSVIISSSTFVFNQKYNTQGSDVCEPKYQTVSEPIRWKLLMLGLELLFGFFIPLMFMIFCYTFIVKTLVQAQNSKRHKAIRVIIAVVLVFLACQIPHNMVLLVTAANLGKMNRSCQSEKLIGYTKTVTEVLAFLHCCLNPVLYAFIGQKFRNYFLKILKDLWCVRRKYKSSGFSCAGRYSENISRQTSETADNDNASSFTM
# Experiment: Human CCR6-CRE reporter assay
# Type: cell-based
# Design: The second construct contained the open reading frame of human CCR6 in the pUNO1 backbone; host or cells: 293FT cells (transient transfection with TransIT-293)
# Details: 293FT cells transfected with human CCR6 and CRE-luciferase; Forskolin + CCL20, 5 h; relative Log IC50; read-out: CCR6-CRE reporter (converted)
# Description: 293FT cells were transfected with 2 constructs using TransIT-293 (Mirus). The first construct (pGL4.29, Promega) expressed the luciferase reporter gene luc2P in response to the binding of cAMP-induced CREB to the CREelement in its promoter. The second construct contained the open reading frame of human CCR6 in the pUNO1 backbone under the control of an enhanced CMV promoter(InVivoGen).48 h after transfection, cells were harvested and diluted to 750,000 cells/ml in culture medium (DMEM, 10% FBS, 1× pen/strep(Gibco 15140)). Compounds were 2.5-fold serially diluted in DMSO. Further dilutions were made in assay medium (DMEM, 10% FBS, 1× pen/strep, 6 μM Forskolin, 6 nM CCL20). 4 μl of the compound solution was added to a white MW384 plate, followed by […] of the cell suspension. Final DMSO concentration in the assay was 0.1%. The MW384 plate was placed in an incubator at 37° C., 5% CO2 for 5 h. Luciferase activity was determined by addition of 24 μl of a 2.5× diluted BriteLite luciferase solution(Perkin Elmer), followed by luminescence measurement using a VICTOR Plate reader (Perkin Elmer). […] The relative Log IC50 was determined with GraphPad Prism 9 using a four-parameter dose-response model.
row,SMILES,IC50 [nM]
1,"CC1CC(Nc2ccc(OC(F)(F)F)cc2)CCN1S(=O)(=O)c1ccc(-c2ccc(C#N)cc2)cc1 (centres unmarked) [Example 36, 4′-[(2-methyl-4-{[4-(trifluoromethoxy)phenyl]Amino}piperidin-1-yl)sulfonyl]-[1,1′-biphenyl]-4-carbonitrile]",398
2,"N#Cc1ccc(-c2ccc(S(=O)(=O)[C@H]3CC[C@H](Nc4cccc(OC(F)(F)F)c4)CC3)cc2)cc1 [Example 40, 4′-{[trans-4-{[3-(trifluoromethoxy)phenyl]Amino}cyclohexyl]sulfonyl}-[1,1′-biphenyl]-4-carbonitrile]",398
3,"CC1CC(Nc2ccc(OC(F)(F)F)cc2)CCN1S(=O)(=O)c1ccc(-c2ccc3c(c2)C(=O)NC3)cc1 (centres unmarked) [Example 37, 6-{4-[(2-methyl-4-{[4-(trifluoromethoxy)phenyl]Amino}piperidin-1-yl)sulfonyl]phenyl}-2,3-dihydro-1H-isoindol-1-one]",251
4,"Cc1cc(-c2ccc(S(=O)(=O)N3CCC(Nc4cc(OC(F)(F)F)ccn4)CC3)cc2)cn2c(C(C)C)nnc12 [Example 71, N-(1-{4-[8-methyl-3-(propan-2-yl)-[1,2,4]triazolo[4,3-a]pyridin-6-yl]benzenesulfonyl}piperidin-4-yl)-4-(trifluoromethoxy)pyridin-2-amine]",1000
5,"CC(C)c1cnc2ccc(-c3ccc(S(=O)(=O)[C@H]4CC[C@H](Nc5cccc(SC(F)(F)F)c5)CC4)cc3)cn12 [Example 47, N-[trans-4-{4-[3-(propan-2-yl)imidazo[1,2-a]pyridin-6-yl]benzenesulfonyl}cyclohexyl]-3-[(trifluoromethyl)sulfanyl]aniline]",100
6,"O=S(=O)(c1ccc(-c2ccc3nccn3c2)cc1)[C@H]1CC[C@H](Nc2ccc(SC(F)(F)F)cc2)CC1 [Example 45, N-[trans-4-(4-{imidazo[1,2-a]pyridin-6-yl}benzenesulfonyl)cyclohexyl]-4-[(trifluoromethyl)sulfanyl]aniline]",79.4
7,"O=C1NCc2ccc(-c3ccc(S(=O)(=O)N4CCC(Nc5cccc(OC(F)(F)F)c5)CC4)cc3)cc21 [Example 10, 6-{4-[(4-{[3-(trifluoromethoxy)phenyl]Amino}piperidin-1-yl)sulfonyl]phenyl}-2,3-dihydro-1H-isoindol-1-one]",3160
8,"O=S(=O)(c1ccc(-c2ccc3nccn3c2)cc1)[C@H]1CC[C@H](Nc2ccc(OC(F)(F)F)cn2)CC1 [Example 73, N-[trans-4-(4-{imidazo[1,2-a]pyridin-6-yl}benzenesulfonyl)cyclohexyl]-5-(trifluoromethoxy)pyridin-2-amine]",126
9,"N=S(=O)(c1ccc(-c2ccc3n[nH]c(=O)n3c2)cc1)[C@H]1CC[C@H](Nc2ccc(SC(F)(F)F)cc2)CC1 (stereo partly drawn) [Example 53, 6-(4-{[trans-4-({4-[(trifluoromethyl)sulfanyl]phenyl}Amino)cyclohexyl]sulfonimidoyl}phenyl)-2H,3H-[1,2,4]triazolo[4,3-a]pyridin-3-one]",316
10,"N=S(=O)(c1ccc(-c2ccc3nccn3c2)cc1)[C@H]1CC[C@H](Nc2ccc(OC(F)(F)F)cn2)CC1 (stereo partly drawn) [Example 54, (4-{imidazo[1,2-a]pyridin-6-yl}phenyl)[trans-4-{[5-(trifluoromethoxy)pyridin-2-yl]Amino}cyclohexyl](imino)-λ^6-sulfanone]",631
11,"Cc1cc(-c2ccc(S(=O)(=O)N3CCC(Nc4ccc(SC(F)(F)F)cn4)CC3)cc2)cn2c(C(C)C)cnc12 [Example 61, N-(1-{4-[8-methyl-3-(propan-2-yl)imidazo[1,2-a]pyridin-6-yl]benzenesulfonyl}piperidin-4-yl)-5-[(trifluoromethyl)sulfanyl]pyridin-2-amine]",63.1
12,"O=c1[nH]nc2ccc(-c3ccc(S(=O)(=O)[C@H]4CC[C@H](Nc5ccc(SC(F)(F)F)cc5)CC4)cc3)cn12 [Example 50, 6-(4-{[trans-4-({4-[(trifluoromethyl)sulfanyl]phenyl}Amino)cyclohexyl]sulfonyl}phenyl)-2H,3H-[1,2,4]triazolo[4,3-a]pyridin-3-one]",79.4

# The next lines start with the values.
row,IC50 [nM],SMILES
1,126,"NC(=O)c1cccc(-c2ccc(S(=O)(=O)N3CCC(Nc4ccc(OC(F)(F)F)cc4)CC3)cc2)c1 [Example 5, 4′-[(4-{[4-(trifluoromethoxy)phenyl]Amino}piperidin-1-yl)sulfonyl]-[1,1′-biphenyl]-3-carboxamide]"
2,39.8,"CC(C)c1cnc2ccc(-c3ccc(S(=O)(=O)N4CCC(Nc5ccc(SC(F)(F)F)cn5)CC4)cc3)cn12 [Example 64, N-(1-{4-[3-(propan-2-yl)imidazo[1,2-a]pyridin-6-yl]benzenesulfonyl}piperidin-4-yl)-5-[(trifluoromethyl)sulfanyl]pyridin-2-amine]"
3,79.4,"NC(=O)c1cccc(-c2ccc(S(=O)(=O)N3CCC(Nc4ccc(OC(F)(F)F)cn4)CC3)cc2)c1 [Example 9, 4′-[(4-{[5-(trifluoromethoxy)pyridin-2-yl]Amino}piperidin-1-yl)sulfonyl]-[1,1′-biphenyl]-3-carboxamide]"
4,31.6,"CC(C)c1nnc2ccc(-c3ccc(S(=O)(=O)N4CCC(Nc5ccc(OC(F)(F)F)cn5)CC4)cc3)cn12 [Example 56, N-(1-{4-[3-(propan-2-yl)-[1,2,4]triazolo[4,3-a]pyridin-6-yl]benzenesulfonyl}piperidin-4-yl)-5-(trifluoromethoxy)pyridin-2-amine]"
5,50.1,"CC(C)c1cnc2ccc(-c3ccc(S(=O)(=O)N4CCC(Nc5ccc(SC(F)(F)F)cc5)CC4)cc3)cn12 [Example 31, 1-{4-[3-(propan-2-yl)imidazo[1,2-a]pyridin-6-yl]benzenesulfonyl}-N-{4-[(trifluoromethyl)sulfanyl]phenyl}piperidin-4-amine]"
6,251,"COCc1nnc2ccc(-c3ccc(S(=O)(=O)N4CCC(Nc5ccc(OC(F)(F)F)cc5)CC4)cc3)cn12 [Example 22, 1-{4-[3-(methoxymethyl)-[1,2,4]triazolo[4,3-a]pyridin-6-yl]benzenesulfonyl}-N-[4-(trifluoromethoxy)phenyl]piperidin-4-amine]"
7,631,"O=S(=O)(c1ccc(-c2ccccc2)cc1)N1CCC(Nc2ccc(OC(F)(F)F)cc2)CC1 [Example 25, 1-{[1,1′-biphenyl]-4-sulfonyl}-N-[4-(trifluoromethoxy)phenyl]piperidin-4-amine]"
8,39.8,"Cc1nnc2ccc(-c3ccc(S(=O)(=O)N4CCC(Nc5ccc(OC(F)(F)F)cn5)CC4)cc3)cn12 [Example 60, N-[1-(4-{3-methyl-[1,2,4]triazolo[4,3-a]pyridin-6-yl}benzenesulfonyl)piperidin-4-yl]-5-(trifluoromethoxy)pyridin-2-amine]"
9,200,"Cc1n[nH]c2ccc(-c3ccc(S(=O)(=O)N4CCC(Nc5ccc(OC(F)F)cc5)CC4)cc3)cc12 [Example 27, N-[4-(difluoromethoxy)phenyl]-1-[4-(3-methyl-1H-indazol-5-yl)benzenesulfonyl]piperidin-4-amine]"
10,79.4,"Cc1cnc2ccc(-c3ccc(S(=O)(=O)N4CCC(Nc5ccc(OC(F)(F)F)cc5)CC4)cc3)cn12 [Example 16, 1-(4-{3-methylimidazo[1,2-a]pyridin-6-yl}benzenesulfonyl)-N-[4-(trifluoromethoxy)phenyl]piperidin-4-amine]"

# Same assay, conditions: scaffold variant X = O, R1 = CF3; read-out: Activity in human CCR6-CRE reporter assay
row,IC50 [nM],SMILES
1,62,"NC(=O)c1cc(-c2ccc(S(=O)(=O)N3CCC(Nc4ccc(OC(F)(F)F)cn4)CC3)cc2)ccn1 [Example 58, 4-{4-[(4-{[5-(trifluoromethoxy)pyridin-2-yl]amino}piperidin-1-yl)sulfonyl]phenyl}pyridine-2-carboxamide]"
2,150,"O=S(=O)(c1ccc(-c2ccc3nccn3c2)cc1)N1CCC(Nc2ccc(OC(F)(F)F)cn2)CC1 [Example 12, N-[1-(4-{imidazo[1,2-a]pyridin-6-yl}benzenesulfonyl)piperidin-4-yl]-5-(trifluoromethoxy)pyridin-2-amine]"
3,1100,"O=S(=O)(c1ccc(-c2ccccc2)cc1)N1CCC(Nc2ccc(OC(F)(F)F)cc2)CC1 [Example 25, 1-{[1,1′-biphenyl]-4-sulfonyl}-N-[4-(trifluoromethoxy)phenyl]piperidin-4-amine]"

# Same assay, conditions: scaffold variant X = S, R1 = CF3; read-out: Activity in human CCR6-CRE reporter assay
row,IC50 [nM],SMILES
1,50,"O=S(=O)(c1ccc(-c2ccc3nccn3c2)cc1)N1CCC(Nc2ccc(SC(F)(F)F)cn2)CC1 [Example 62, N-[1-(4-{imidazo[1,2-a]pyridin-6-yl}benzenesulfonyl)piperidin-4-yl]-5-[(trifluoromethyl)sulfanyl]pyridin-2-amine]"

# Source: patent US20250353859A1, “COMPOUNDS AS CCR6 INHIBITORS” (Hoffmann-La Roche Inc., priority 2023, published 2025)
